Non-standard residues stand in square brackets, D forms with d. Residues, ends and D or L forms follow the SMILES beside them. *: point of attachment. DOTA = O=C(O)CN1CCN(CC(=O)O)CCN(CC(=O)*)CCN(CC(=O)O)CC1; Aib = CC(C)(N)C(=O)O; AEA = NCCOCC(=O)O
How the values were obtained:
integrin α5β1 = integrin α5β1 (Homo sapiens, UniProt P05556+P08648); assay: Target affinity test by surface plasmon resonance (SPR), integrin α5β1; type: binding; conditions: for Kd: SPR (Biacore T200), CM5 chip, 25° C., KD=Kd/Ka
integrin α5β1, sequence (P08648 42-995 limits assumed): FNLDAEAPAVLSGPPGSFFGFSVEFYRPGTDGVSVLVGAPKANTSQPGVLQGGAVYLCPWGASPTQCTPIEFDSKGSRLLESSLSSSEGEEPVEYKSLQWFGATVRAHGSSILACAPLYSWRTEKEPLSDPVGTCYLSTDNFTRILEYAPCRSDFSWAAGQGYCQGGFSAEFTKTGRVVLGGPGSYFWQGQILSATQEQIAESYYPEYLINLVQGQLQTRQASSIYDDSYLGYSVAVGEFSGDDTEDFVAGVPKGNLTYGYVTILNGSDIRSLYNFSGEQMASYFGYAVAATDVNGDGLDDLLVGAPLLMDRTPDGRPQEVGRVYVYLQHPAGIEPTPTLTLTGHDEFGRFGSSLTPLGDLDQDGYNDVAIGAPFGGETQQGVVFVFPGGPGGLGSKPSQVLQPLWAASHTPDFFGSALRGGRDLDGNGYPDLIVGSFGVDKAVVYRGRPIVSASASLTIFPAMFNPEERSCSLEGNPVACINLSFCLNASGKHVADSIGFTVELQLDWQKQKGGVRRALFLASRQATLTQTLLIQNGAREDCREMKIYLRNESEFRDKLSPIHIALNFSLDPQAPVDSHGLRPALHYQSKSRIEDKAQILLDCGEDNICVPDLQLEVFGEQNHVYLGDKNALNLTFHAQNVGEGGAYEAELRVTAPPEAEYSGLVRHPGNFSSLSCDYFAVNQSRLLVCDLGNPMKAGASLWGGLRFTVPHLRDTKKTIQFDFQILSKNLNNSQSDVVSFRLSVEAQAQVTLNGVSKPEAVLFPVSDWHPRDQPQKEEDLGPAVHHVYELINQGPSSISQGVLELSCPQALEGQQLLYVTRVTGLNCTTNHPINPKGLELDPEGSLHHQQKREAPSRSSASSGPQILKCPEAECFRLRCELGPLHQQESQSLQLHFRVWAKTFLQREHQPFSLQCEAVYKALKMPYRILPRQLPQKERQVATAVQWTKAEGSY
integrin α5β1, sequence (P05556 21-728 limits assumed): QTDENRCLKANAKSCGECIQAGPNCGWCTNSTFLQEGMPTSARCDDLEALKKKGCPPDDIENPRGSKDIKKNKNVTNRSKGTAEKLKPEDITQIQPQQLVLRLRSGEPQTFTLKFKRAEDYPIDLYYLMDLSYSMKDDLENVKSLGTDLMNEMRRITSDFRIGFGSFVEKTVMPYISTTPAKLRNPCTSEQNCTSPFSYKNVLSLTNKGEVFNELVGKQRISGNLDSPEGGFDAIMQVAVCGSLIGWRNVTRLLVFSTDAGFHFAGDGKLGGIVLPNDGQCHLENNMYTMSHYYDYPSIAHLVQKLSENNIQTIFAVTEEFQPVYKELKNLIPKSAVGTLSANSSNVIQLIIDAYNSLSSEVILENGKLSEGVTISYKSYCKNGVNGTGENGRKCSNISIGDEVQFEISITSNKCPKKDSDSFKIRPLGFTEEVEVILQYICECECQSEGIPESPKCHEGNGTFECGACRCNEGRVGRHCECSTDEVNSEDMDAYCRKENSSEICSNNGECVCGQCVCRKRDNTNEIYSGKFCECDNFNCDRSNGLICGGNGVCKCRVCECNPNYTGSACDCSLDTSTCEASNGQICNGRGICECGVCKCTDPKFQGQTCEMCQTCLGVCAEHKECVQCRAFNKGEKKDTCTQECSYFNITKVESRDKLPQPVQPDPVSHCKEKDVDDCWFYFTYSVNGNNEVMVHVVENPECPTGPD
Protocol: (§1) Surface plasmon resonance (SPR) technique was used to test the affinity of the compound in the examples to the target protein integrin α5β1. Specifically, the following operations were performed.
(§2) The affinity constants (KD) of the compounds to the target proteins integrin α5β1, αvβ3, and αvβ5 were calculated according to the formula of KD=Kd/Ka (the lower the value of KD, the higher the affinity of the compounds of the examples to the target protein integrin α5β1).

integrin αvβ3 = integrin αvβ3 (Homo sapiens, UniProt P05106+P06756); assay: Target affinity test by surface plasmon resonance (SPR), integrin αvβ3; type: binding; conditions: for Kd: SPR (Biacore T200), CM5 chip, 25° C., KD=Kd/Ka
integrin αvβ3, sequence (P06756 31-992 limits assumed): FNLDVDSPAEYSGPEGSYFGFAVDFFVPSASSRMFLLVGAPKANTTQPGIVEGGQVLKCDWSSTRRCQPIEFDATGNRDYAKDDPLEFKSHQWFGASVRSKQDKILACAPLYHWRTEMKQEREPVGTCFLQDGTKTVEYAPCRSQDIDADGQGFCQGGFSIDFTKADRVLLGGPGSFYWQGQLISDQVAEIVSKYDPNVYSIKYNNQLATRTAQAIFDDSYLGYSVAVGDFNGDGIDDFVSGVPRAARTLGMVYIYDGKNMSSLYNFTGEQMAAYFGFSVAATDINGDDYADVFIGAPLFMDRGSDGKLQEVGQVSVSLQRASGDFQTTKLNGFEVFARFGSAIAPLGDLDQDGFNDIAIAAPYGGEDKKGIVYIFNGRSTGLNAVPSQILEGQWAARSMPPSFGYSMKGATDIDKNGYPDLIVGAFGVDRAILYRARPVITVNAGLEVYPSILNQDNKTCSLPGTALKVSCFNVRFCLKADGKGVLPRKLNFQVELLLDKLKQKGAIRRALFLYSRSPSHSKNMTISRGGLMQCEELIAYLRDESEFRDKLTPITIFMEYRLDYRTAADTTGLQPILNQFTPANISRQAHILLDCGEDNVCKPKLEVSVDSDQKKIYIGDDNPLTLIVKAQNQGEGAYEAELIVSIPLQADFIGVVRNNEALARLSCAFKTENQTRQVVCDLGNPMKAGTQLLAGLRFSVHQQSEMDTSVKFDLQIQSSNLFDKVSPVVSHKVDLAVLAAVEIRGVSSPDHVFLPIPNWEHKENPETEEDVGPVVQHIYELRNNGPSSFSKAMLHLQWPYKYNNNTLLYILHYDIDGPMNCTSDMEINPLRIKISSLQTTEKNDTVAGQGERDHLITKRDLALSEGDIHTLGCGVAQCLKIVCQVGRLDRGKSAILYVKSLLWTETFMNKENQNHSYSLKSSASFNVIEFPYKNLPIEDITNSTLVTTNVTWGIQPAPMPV
integrin αvβ3, sequence (P05106 27-718 limits assumed): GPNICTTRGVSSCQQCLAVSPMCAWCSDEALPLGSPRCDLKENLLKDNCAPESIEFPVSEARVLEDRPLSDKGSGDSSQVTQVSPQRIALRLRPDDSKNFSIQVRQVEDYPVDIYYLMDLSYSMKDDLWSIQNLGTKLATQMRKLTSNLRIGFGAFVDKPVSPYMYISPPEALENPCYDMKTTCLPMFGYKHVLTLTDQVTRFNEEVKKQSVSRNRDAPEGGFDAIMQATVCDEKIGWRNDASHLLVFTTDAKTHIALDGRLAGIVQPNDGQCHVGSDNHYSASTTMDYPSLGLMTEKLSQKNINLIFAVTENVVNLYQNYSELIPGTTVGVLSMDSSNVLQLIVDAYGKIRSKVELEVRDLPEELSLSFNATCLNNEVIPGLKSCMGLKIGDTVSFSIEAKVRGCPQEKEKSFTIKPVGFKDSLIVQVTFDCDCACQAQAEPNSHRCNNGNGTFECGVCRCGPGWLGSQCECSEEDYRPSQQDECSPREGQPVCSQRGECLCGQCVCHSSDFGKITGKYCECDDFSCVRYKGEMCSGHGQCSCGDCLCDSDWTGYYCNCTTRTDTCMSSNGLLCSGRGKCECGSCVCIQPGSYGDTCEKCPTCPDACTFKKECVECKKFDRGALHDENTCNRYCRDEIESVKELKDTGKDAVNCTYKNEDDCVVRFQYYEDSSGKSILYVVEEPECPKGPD
Protocol: as §1, §2

Row | SMILES | affinity constant (KD) to integrin α5β1, in words (integrin α5β1; SPR) | Kd (integrin α5β1) [nM] | Kd (integrin αvβ3) [nM] | affinity constant (KD) to integrin αvβ3, in words (integrin αvβ3; SPR)
1 | CC[C@H](C)[C@H](NC(=O)C(C)(C)NC(=O)[C@H](CC(=O)O)NC(=O)[C@H](CC(N)=O)NC(=O)CN1CCN(CC(=O)O)CCN(CC(=O)O)CCN(CC(=O)O)CC1)C(=O)N[C@@H](CC(N)=O)C(=O)O [TM11] ({DOTA}-ND[Aib]IN-OH) | better than nM level | 0.0681 | 190 | 
2 | CC[C@H](C)[C@H](NC(=O)[C@@H](NC(=O)[C@H](CC(=O)O)NC(=O)[C@H](CC(N)=O)NC(=O)COCCNC(=O)CN1CCN(CC(=O)O)CCN(CC(=O)O)CCN(CC(=O)O)CC1)C(C)C)C(=O)N[C@@H](CC(N)=O)C(=O)O [TM13] ({DOTA-AEA}-NDVIN-OH) |  | 1450 | 0.646 | nM level
